± gives the standard deviation of the averaged measurements. Some results are limits rather than exact numbers.

Compound in this experiment: C=C1C[C@H]2C=Nc3cc(OCCCCCOc4cc5c(cc4OC)C(=O)N4CC(=C)C[C@H]4C=N5)c(OC)cc3C(=O)N2C1 [SG2057]
Nature of the experiment: absolute IC50 (cell viability, CellTiter-Glo); higher = less potent. The settings on record: treatment time: 3 days. Here is the method:
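Large cancer cell line panel screens in 384-well plates. Cells were treated for 3 days with a 9-point dose titration of the free PBD dimer SG2057; viability was read with CellTiter-Glo. Absolute IC50 came from a four-parameter Hill fit normalised to the median of vehicle (DMSO) wells. Several independent screens (projects) per cell line are averaged; values in µM, lowest-dose floor about 1.524e-5 µM.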
In general terms: Cellular ATP, detected with luciferase, serves as a proxy for viable cell number.
For the test system ONS-76, the absolute IC50 (in general, the concentration giving 50% inhibition relative to the control) is 0.487 nM. In the case of NCI-N87, the “absolute IC50” value stood at 0.403 ± 0.11 nM. For the test system NTERA-2, the “absolute IC50” value was under 0.0152 nM. Regarding NCI-H358, the “absolute IC50” value stood at 0.959 ± 0.56 nM. Regarding Li-7, the “absolute IC50” value stood at 4.51 nM. Regarding HCC4019, the “absolute IC50” value came to 4.51 ± 2.9 nM. As to IGROV-1, the “absolute IC50” value came out at 1.14 ± 1.6 nM. Turning to UKE-1, the “absolute IC50” value was 0.0189 ± 0.0056 nM. Next, NCI-H1734: 0.237 nM; HOP-18: 3.89 nM; G-402: 0.349 ± 0.14 nM. Next, B16-F10 Luciferase: 0.894 nM; NCI-H650: 2.97 ± 3.3 nM. For the test system CCF-STTG1, the “absolute IC50” value was 2.87 nM. With BT-20, the “absolute IC50” value was determined as 1.72 ± 0.74 nM. Regarding NCI-H460, the “absolute IC50” value came out at 0.242 ± 0.2 nM. In the case of SM1 it was 0.444 nM; in that of MKN-74, 2.17 nM. Turning to SK-CO-1, the “absolute IC50” value was determined as 0.201 ± 0.19 nM. Next, OAW28: 5.25 nM; COLO 678: 5.65 ± 4.5 nM. As to BICR 10, the “absolute IC50” value is 0.421 nM. Next, BFTC-909: 0.681 nM; NCI-H1869: 2.35 nM; KMRC-1: 1.26 nM. In the case of Hep G2 it was 2.2 nM; in that of NCI-H2126, 3.94 nM; in that of EL4, 0.0929 nM. Next, NCI-H2228: 0.279 nM; C170: 2.97 ± 1.1 nM. Turning to OvCA 432, the “absolute IC50” value amounted to 1.08 ± 0.64 nM. In the case of HCC1937 it was 4.67 ± 4.4 nM; in that of B16-F10, 1.01 nM.

As to MOLM-16, the “absolute IC50” value came out at 0.27 ± 0.29 nM. In the case of NCI-H2009 it was 1.1 ± 0.98 nM. Turning to K-562, the “absolute IC50” value was found to be 0.617 ± 0.68 nM. In the case of HEp-2 it was 0.322 nM; in that of DMS 273, 1.38 nM; in that of SW 403, 3.64 ± 1.6 nM. Take KYSE-450: the “absolute IC50” value came out at 0.564 nM.

For SiHa, the “absolute IC50” value is 1.56 nM. In the case of G140 it was 1.28 ± 1.7 nM; in that of MC-38 Ovalbumin, 0.208 nM.

Consider NCI-H1155, for which the “absolute IC50” value was found to be 0.221 ± 0.2 nM. PLC/PRF/5: the “absolute IC50” value was 8.3 nM.

Take KPP14388: the “absolute IC50” value is 0.96 nM.

For the test system SCLC-22H, the “absolute IC50” value was 0.905 nM.

For NCI-H1339, the “absolute IC50” value was determined as 0.155 nM. KMS-28PE: the “absolute IC50” value was found to be 0.0647 ± 0.036 nM.

With HMVII, the “absolute IC50” value was determined as 0.434 ± 0.73 nM. With SKG-II, the “absolute IC50” value is 0.0743 nM. In the case of 1624-16997 (Tumor A) it was 0.926 nM; in that of EPLC-272H, 0.205 nM. Next, HT-3: 0.212 nM; NCI-H1563: 3.61 nM; Hs 746T: 1.81 ± 3.4 nM. Consider HCA-7, for which the “absolute IC50” value is 2.01 ± 1.7 nM.

Regarding KP4, the “absolute IC50” value amounted to 0.251 ± 0.14 nM. In the case of KPR3351 it was 0.931 nM. Consider QGP-1, for which the “absolute IC50” value came to 5.47 ± 0.39 nM. In the case of 4498-14745 Mel-BR3 it was 0.39 nM; in that of NCI-H2804, 0.718 ± 0.98 nM. In the case of NCI-H2731, the “absolute IC50” value was 1.29 ± 1.9 nM. In the case of KP-3L it was 2.69 ± 0.26 nM. CAMA-1: the “absolute IC50” value turned out to be 5.02 nM.

CAL-85-1: the “absolute IC50” value came out at 1.67 ± 0.48 nM. In the case of OE21 it was 0.259 nM; in that of BT-B, 0.864 nM.

Source of the values: the supplement of paper PMC10784567.
